Where a SMILES comes first, the peptide text is derived from it. Bridges are numbered along the chain shown (N, C = ends).
Columns and labels:
Format in all cases: cell-based
[1] = molecular target: T1, glucagon receptor (Homo sapiens, UniProt P47871); test: cAMP synthesis functional assay (firefly luciferase reporter in HEK293 cells), glucagon receptor; settings: Table 1; relative to the native hormone of the indicated receptor
T1 construct: expressed in transfected cells; host or cells: HEK293

[2] = molecular target: T2, GLP-1 receptor (Homo sapiens, UniProt P43220); test: cAMP synthesis functional assay (firefly luciferase reporter in HEK293 cells), GLP-1 receptor; settings: Table 1; relative to the native hormone of the indicated receptor
T2 construct: expressed in transfected cells; host or cells: HEK293

[3] = molecular target: T3, GIP receptor (Homo sapiens, UniProt P48546); test: cAMP synthesis functional assay (firefly luciferase reporter in HEK293 cells), GIP receptor; settings: Table 1; for GIP Receptor relative activity: relative to the native hormone of the indicated receptor
T3 construct: expressed in transfected cells; host or cells: HEK293
T3 sequence (P48546 22-466): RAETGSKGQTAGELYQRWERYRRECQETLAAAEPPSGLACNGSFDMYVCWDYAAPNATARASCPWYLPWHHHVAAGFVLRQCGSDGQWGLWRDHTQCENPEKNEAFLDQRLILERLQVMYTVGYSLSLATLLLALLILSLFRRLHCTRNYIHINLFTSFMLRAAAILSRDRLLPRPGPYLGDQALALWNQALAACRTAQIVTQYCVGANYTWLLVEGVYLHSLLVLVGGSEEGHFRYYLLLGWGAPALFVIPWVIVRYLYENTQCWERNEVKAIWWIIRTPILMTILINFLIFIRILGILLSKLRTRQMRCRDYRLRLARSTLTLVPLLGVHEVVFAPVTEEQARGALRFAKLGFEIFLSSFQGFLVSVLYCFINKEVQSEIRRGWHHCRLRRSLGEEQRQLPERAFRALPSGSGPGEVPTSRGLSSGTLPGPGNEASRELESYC

T1 sequence (P47871 26-477): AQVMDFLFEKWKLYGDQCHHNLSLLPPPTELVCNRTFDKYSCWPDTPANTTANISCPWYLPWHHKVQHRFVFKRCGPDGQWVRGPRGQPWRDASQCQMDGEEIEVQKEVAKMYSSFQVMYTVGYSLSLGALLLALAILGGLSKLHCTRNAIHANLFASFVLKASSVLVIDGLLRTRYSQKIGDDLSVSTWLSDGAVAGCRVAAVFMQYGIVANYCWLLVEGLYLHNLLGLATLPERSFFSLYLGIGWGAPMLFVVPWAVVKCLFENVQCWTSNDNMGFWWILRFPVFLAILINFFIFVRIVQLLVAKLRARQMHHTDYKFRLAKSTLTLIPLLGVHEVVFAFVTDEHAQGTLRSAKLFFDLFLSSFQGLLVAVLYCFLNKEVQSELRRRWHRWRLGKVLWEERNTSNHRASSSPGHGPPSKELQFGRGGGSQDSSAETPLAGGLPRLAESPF
T2 sequence (P43220 24-463, species assumed): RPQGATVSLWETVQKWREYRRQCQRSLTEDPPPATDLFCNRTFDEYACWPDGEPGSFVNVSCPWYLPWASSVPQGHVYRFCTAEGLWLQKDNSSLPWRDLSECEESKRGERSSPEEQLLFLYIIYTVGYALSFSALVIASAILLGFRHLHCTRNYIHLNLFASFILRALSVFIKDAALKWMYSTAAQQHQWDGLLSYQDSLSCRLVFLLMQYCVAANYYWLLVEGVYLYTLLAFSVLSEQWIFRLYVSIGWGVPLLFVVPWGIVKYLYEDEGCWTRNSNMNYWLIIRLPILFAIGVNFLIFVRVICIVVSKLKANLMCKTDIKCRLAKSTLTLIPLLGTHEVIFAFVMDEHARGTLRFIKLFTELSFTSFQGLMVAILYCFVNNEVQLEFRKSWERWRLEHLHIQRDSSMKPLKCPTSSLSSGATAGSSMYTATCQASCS

In the case of CC[C@H](C)[C@H](NC(=O)[C@H](Cc1ccccc1)NC(=O)[C@H](CC(=O)O)NC(=O)[C@@H]1CCCCNC(=O)CC[C@H](NC(=O)[C@H](CC(=O)O)NC(=O)[C@H](CC(C)C)NC(=O)[C@H](Cc2ccc(O)cc2)NC(=O)[C@H](CCCCN)NC(=O)[C@H](CO)NC(=O)[C@H](Cc2ccc(O)cc2)NC(=O)[C@H](CC(=O)O)NC(=O)[C@H](CO)NC(=O)[C@@H](NC(=O)[C@H](Cc2ccccc2)NC(=O)[C@@H](NC(=O)CNC(=O)[C@H](CCC(N)=O)NC(=O)[C@H](CO)NC(=O)[C@@H](N)Cc2c[nH]cn2)[C@@H](C)O)[C@@H](C)O)C(=O)N[C@@H]([C@@H](C)CC)C(=O)N[C@@H](Cc2c[nH]cn2)C(=O)N[C@@H](CCC(N)=O)C(=O)N1)C(=O)N[C@@H](C)C(=O)N[C@@H](Cc1c[nH]c2ccccc12)C(=O)N[C@@H](CC(C)C)C(=O)N[C@@H](CCSC)C(=O)N[C@@H](CC(N)=O)C(=O)NCC(=O)NCC(=O)N1CCC[C@H]1C(=O)N[C@@H](CO)C(=O)N[C@@H](CO)C(=O)NCC(=O)N[C@@H](C)C(=O)N1CCC[C@H]1C(=O)N1CCC[C@H]1C(=O)N1CCC[C@H]1C(=O)N[C@@H](CO)C(N)=O [mt-128] (H-HSQGTFTSDYSKYLDEIHQKDFIAWLMNGGPSSGAPPPS-NH2; lactam 16-20; N-terminus assumed), the “Glucagon Receptor relative activity” value [1] is reported as 11.13%, the “GLP-1 Receptor relative activity” value [2] is reported as 33.33% and the EC50 ([3]; GIP Receptor EC50, nM) is reported as 14.6 nM. For the same molecule, the “GIP Receptor relative activity” value [3] was 0.42%.
With CC[C@H](C)[C@H](NC(=O)[C@H](Cc1ccccc1)NC(=O)[C@@H](NC(=O)CNC(=O)[C@H](CCC(N)=O)NC(=O)[C@H](C)NC(=O)[C@@H](N)Cc1ccc(O)cc1)[C@@H](C)O)C(=O)N[C@@H](CO)C(=O)N[C@@H](CC(=O)O)C(=O)N[C@@H](Cc1ccc(O)cc1)C(=O)N[C@@H](CO)C(=O)N[C@@H](CCCCN)C(=O)N[C@@H](Cc1ccc(O)cc1)C(=O)N[C@@H](CC(C)C)C(=O)N[C@@H](CC(=O)O)C(=O)N[C@H]1CCC(=O)NCCCC[C@@H](C(=O)N[C@@H](CCC(=O)O)C(=O)N[C@@H](Cc2ccccc2)C(=O)N[C@H](C(=O)N[C@@H](CC(N)=O)C(=O)N[C@@H](Cc2c[nH]c3ccccc23)C(=O)N[C@@H](CC(C)C)C(=O)N[C@@H](CC(C)C)C(=O)N[C@@H](C)C(=O)NCC(=O)NCC(=O)N2CCC[C@H]2C(=O)N[C@@H](CO)C(=O)N[C@@H](CO)C(=O)NCC(=O)N[C@@H](C)C(=O)N2CCC[C@H]2C(=O)N2CCC[C@H]2C(=O)N2CCC[C@H]2C(=O)N[C@@H](CO)C(N)=O)C(C)C)NC(=O)[C@H](C)NC(=O)[C@H](C)NC(=O)[C@H](CCC(N)=O)NC1=O [mt-146] (H-YAQGTFISDYSKYLDEQAAKEFVNWLLAGGPSSGAPPPS-NH2; lactam 16-20; N-terminus assumed) the “Glucagon Receptor relative activity” value [1] was 480.00%, the “GLP-1 Receptor relative activity” value [2] was 0.25% and the “GIP Receptor relative activity” value [3] was 13.30%.
In the case of CC[C@H](C)[C@H](NC(=O)[C@H](Cc1ccccc1)NC(=O)[C@H](CCC(=O)O)NC(=O)[C@@H]1CCCCNC(=O)CC[C@H](NC(=O)[C@H](CC(=O)O)NC(=O)[C@H](CC(C)C)NC(=O)[C@H](C)NC(=O)[C@H](CCCCN)NC(=O)[C@H](CO)NC(=O)[C@H](Cc2ccc(O)cc2)NC(=O)[C@H](CC(=O)O)NC(=O)[C@H](CO)NC(=O)[C@@H](NC(=O)[C@H](Cc2ccccc2)NC(=O)[C@@H](NC(=O)CNC(=O)[C@H](CCC(N)=O)NC(=O)[C@H](CO)NC(=O)[C@@H](N)Cc2c[nH]cn2)[C@@H](C)O)[C@@H](C)CC)C(=O)N[C@@H]([C@@H](C)CC)C(=O)N[C@@H](Cc2c[nH]cn2)C(=O)N[C@@H](CCC(N)=O)C(=O)N1)C(=O)N[C@@H](C)C(=O)N[C@@H](Cc1c[nH]c2ccccc12)C(=O)N[C@@H](CC(C)C)C(=O)N[C@@H](CCSC)C(=O)N[C@@H](CC(N)=O)C(=O)N[C@H](C(N)=O)[C@@H](C)O [mt-108] (H-HSQGTFISDYSKALDEIHQKEFIAWLMNT-NH2; lactam 16-20; N-terminus assumed), the “Glucagon Receptor relative activity” value [1] is reported as 68.42%, the “GLP-1 Receptor relative activity” value [2] is reported as 12.50% and the “GIP Receptor relative activity” value [3] is reported as 0.52%.

Source: patent US9062124B2, “GIP-based mixed agonists for treatment of metabolic disorders and obesity” (priority 2008, dated 2015)
